Source: ChEMBL document CHEMBL2034824, “Pyridyl-2,5-diketopiperazines as potent, selective, and orally bioavailable oxytocin antagonists: synthesis, pharmacokinetics, and in vivo potency” (J Med Chem, 2012)
≈ marks a conversion by molar mass, not a printed value.

Experiments:
Oxytocin receptor = biological target: T1, Oxytocin receptor (Homo sapiens, UniProt P30559); assay: Displacement of [3H]oxytocin from human oxytocin receptor
T1 sequence (P30559 whole entry): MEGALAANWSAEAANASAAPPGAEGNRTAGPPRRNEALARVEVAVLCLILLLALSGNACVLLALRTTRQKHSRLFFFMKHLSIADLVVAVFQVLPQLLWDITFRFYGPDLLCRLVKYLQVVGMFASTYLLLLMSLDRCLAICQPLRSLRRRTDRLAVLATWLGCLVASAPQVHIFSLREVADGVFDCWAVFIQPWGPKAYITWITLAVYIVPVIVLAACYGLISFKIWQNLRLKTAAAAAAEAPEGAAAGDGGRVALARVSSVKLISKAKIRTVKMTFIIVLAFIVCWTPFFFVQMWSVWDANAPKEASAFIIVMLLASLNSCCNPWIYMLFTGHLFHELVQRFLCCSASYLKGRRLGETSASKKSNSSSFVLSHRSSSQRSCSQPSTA

[1] = AUC in rat at 5 mg/kg, po; type: ADME, organism-based; design: dose 5 mg/kg, route oral; details: plasma
[2] = Clearance in rat at 5 mg/kg; type: ADME, organism-based; design: dose 5 mg/kg; details: in vivo
[3] = Oral bioavailability in rat at 5 mg/kg; type: ADME, organism-based; details: in vivo
[4] = AUC in dog at 0.6 mg/kg, po; type: ADME, organism-based, Canis lupus familiaris; design: dose 0.6 mg/kg, route oral; details: plasma
[5] = Clearance in dog at 0.6 mg/kg; type: ADME, organism-based, Canis lupus familiaris; design: dose 0.6 mg/kg; details: in vivo
[6] = Oral bioavailability in dog at 0.6 mg/kg; type: ADME, organism-based, Canis lupus familiaris; details: in vivo
[7] = Aqueous solubility of the compound by HPLC analysis; type: physicochemical
[8] = Lipophilicity, log D of the compound by HPLC analysis; type: physicochemical
serum albumin [9] = biological target: serum albumin (Homo sapiens, UniProt P02768); assay: Binding affinity to human serum albumin; type: ADME; details: read-out: PB (converted)
serum albumin (Homo sapiens, UniProt P02768), sequence (P02768 whole entry): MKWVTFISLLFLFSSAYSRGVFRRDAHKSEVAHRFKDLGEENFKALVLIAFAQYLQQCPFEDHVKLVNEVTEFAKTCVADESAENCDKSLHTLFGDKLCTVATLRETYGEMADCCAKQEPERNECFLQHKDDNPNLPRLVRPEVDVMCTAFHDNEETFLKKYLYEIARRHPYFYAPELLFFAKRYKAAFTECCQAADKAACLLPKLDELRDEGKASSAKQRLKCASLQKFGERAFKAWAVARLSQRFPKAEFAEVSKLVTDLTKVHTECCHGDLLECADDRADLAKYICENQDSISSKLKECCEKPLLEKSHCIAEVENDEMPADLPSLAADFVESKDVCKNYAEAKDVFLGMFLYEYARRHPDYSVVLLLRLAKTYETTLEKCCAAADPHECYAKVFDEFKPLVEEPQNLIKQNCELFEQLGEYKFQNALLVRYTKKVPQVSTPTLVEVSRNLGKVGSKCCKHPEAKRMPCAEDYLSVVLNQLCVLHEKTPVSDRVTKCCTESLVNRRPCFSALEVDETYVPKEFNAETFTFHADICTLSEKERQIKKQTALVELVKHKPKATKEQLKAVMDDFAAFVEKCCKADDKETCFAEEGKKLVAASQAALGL

Liver microsomes [10] = assay: Intrinsic clearance in rat liver microsomes; type: ADME, Microsome
Liver = assay: Intrinsic clearance in dog liver microsomes; type: ADME, Canis lupus familiaris, Microsome
[11] = Intrinsic clearance in cynomolgus monkey liver microsomes; type: ADME, Macaca fascicularis, Microsome
Liver microsomes [12] = assay: Intrinsic clearance in human liver microsomes; type: ADME, Microsome
Vasopressin V1a receptor = Vasopressin V1a receptor (Homo sapiens, UniProt P37288); assay: Displacement of [3H]vasopressin from human vasopressin V1a receptor
Vasopressin V1a receptor, sequence (P37288 whole entry): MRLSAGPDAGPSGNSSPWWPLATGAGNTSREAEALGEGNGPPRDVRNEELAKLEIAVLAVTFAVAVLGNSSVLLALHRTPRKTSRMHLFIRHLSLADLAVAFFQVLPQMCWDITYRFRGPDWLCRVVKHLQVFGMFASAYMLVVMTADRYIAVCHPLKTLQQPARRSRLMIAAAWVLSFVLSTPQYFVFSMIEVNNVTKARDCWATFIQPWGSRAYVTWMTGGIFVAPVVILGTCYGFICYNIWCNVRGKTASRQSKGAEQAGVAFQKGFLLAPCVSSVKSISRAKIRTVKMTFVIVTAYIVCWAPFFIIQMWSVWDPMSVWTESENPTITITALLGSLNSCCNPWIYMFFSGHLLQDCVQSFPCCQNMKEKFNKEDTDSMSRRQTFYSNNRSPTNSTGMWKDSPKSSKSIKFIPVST

Vasopressin V1b receptor = biological target: T2, Vasopressin V1b receptor (Homo sapiens, UniProt P47901); assay: Displacement of [3H]vasopressin from human vasopressin V1b receptor
T2 sequence (P47901 whole entry): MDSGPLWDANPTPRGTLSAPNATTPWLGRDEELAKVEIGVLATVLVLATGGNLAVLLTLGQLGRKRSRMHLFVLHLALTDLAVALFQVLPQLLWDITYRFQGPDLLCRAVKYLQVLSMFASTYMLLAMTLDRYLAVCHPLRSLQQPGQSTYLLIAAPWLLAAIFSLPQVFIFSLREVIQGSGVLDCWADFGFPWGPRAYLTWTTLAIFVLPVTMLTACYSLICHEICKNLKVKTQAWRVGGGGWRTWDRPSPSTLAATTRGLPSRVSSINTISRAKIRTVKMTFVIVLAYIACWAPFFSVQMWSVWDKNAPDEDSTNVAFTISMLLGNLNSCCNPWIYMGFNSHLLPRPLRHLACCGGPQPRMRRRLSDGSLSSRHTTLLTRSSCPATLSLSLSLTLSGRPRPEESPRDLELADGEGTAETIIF

Vasopressin V2 receptor = Vasopressin V2 receptor (Homo sapiens, UniProt P30518); assay: Displacement of [3H]vasopressin from human vasopressin V2 receptor
Vasopressin V2 receptor, sequence (P30518 whole entry): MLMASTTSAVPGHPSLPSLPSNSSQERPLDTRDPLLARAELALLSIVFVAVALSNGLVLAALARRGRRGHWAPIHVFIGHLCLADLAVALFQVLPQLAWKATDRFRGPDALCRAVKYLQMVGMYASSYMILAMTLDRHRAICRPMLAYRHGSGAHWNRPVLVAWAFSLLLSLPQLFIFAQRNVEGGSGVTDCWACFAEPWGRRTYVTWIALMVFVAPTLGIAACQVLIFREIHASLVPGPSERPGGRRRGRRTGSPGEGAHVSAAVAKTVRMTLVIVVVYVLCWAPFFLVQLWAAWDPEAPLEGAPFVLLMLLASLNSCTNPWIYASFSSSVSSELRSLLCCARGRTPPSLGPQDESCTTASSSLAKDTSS

Rattus norvegicus [13] = assay: Reduction of oxytocin-induced uterine contraction in iv dosed rat uterine contractility model; type: functional, organism-based
Cytochrome P450 1A2 = biological target: T3, Cytochrome P450 1A2 (Homo sapiens, UniProt P05177); assay: Inhibition of human CYP1A2; type: ADME
T3 sequence (P05177 whole entry): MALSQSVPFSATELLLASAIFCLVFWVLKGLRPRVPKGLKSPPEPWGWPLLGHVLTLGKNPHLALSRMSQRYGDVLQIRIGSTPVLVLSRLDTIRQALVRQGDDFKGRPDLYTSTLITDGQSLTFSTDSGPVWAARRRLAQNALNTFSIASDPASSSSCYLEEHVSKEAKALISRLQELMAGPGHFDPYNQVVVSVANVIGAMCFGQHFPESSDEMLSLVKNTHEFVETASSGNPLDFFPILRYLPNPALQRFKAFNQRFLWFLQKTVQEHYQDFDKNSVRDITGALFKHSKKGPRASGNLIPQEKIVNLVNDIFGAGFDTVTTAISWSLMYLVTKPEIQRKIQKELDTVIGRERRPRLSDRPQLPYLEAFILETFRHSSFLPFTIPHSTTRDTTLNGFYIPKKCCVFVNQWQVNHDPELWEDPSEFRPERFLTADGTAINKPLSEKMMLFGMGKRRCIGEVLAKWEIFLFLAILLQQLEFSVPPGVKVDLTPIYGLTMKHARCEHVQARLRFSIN

Cytochrome P450 2C9 = Cytochrome P450 2C9 (Homo sapiens, UniProt P11712); assay: Inhibition of human CYP2C9; type: ADME
Cytochrome P450 2C9, sequence (P11712 whole entry): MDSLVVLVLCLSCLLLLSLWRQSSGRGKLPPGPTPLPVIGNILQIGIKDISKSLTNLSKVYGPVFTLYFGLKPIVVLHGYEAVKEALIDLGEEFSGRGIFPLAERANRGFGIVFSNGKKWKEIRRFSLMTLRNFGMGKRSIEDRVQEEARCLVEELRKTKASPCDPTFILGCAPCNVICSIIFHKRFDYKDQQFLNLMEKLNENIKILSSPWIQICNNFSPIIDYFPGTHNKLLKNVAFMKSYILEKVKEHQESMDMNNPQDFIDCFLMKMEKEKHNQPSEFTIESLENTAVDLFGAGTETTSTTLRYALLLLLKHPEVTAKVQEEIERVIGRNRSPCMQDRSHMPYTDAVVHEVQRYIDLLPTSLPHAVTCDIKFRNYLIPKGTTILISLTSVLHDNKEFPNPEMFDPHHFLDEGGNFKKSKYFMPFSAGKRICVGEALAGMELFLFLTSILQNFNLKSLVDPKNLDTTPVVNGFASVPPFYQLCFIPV

Cytochrome P450 2C19 = Cytochrome P450 2C19 (Homo sapiens, UniProt P33261); assay: Inhibition of human CYP2C19; type: ADME
Cytochrome P450 2C19, sequence (P33261 whole entry): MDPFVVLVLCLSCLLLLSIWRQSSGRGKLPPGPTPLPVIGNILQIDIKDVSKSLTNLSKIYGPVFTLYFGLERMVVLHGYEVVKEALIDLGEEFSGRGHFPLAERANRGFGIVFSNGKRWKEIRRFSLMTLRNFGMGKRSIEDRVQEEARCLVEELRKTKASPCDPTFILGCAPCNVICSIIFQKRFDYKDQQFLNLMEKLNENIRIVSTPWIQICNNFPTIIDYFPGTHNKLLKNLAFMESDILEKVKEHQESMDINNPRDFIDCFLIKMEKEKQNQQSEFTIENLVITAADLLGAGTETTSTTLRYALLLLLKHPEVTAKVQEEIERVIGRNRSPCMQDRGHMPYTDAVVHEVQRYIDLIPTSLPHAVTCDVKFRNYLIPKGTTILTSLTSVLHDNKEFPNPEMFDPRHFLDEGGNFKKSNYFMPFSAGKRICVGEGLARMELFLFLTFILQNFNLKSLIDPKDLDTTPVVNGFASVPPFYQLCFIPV

Cytochrome P450 2D6 = Cytochrome P450 2D6 (Homo sapiens, UniProt P10635); assay: Inhibition of human CYP2D6; type: ADME
Cytochrome P450 2D6, sequence (P10635 whole entry): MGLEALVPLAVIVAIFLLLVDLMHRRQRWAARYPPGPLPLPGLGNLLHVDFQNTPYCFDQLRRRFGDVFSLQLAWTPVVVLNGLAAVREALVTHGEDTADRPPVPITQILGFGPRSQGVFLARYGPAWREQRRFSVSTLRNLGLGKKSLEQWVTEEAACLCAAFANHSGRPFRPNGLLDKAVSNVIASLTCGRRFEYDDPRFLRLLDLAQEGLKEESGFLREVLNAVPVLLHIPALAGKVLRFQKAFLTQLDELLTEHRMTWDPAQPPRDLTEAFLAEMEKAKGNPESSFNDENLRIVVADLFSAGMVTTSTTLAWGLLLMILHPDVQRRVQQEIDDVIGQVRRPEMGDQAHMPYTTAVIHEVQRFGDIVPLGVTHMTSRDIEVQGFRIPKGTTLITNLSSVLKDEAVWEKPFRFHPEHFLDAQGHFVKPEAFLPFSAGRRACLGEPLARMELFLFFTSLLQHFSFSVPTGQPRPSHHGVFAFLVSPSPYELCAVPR

Cytochrome P450 3A4 [14] = biological target: T4, Cytochrome P450 3A4 (Homo sapiens, UniProt P08684); assay: Inhibition of human CYP3A4 using diethoxyfluorescein as substrate; type: ADME
T4 sequence (P08684 whole entry): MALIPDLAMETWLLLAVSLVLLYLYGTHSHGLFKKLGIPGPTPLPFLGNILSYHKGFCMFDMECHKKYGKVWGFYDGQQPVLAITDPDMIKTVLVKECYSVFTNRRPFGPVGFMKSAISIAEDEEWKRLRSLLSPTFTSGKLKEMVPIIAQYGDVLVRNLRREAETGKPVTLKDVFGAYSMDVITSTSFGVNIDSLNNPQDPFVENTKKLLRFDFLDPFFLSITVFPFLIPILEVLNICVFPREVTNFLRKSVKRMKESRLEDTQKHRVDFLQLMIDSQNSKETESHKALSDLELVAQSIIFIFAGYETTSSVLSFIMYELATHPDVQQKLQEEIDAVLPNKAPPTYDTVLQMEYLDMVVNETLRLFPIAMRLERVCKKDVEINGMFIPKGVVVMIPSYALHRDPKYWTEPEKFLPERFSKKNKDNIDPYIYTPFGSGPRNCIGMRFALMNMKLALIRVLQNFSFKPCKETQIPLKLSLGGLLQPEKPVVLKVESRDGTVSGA

Cytochrome P450 3A4 [15] = biological target: T4, Cytochrome P450 3A4; assay: Inhibition of human CYP3A4 using 7-benzyloxyquinoline as substrate; type: ADME
Salmonella typhimurium = assay: Genotoxicity in Salmonella typhimurium by high-throughput fluctuation test/mini-Ames assay; type: toxicity, organism-based; details: salmonella enterica subsp. enterica serovar typhimurium
Rattus norvegicus [16] = assay: Toxicity in Sprague-Dawley rat assessed as reduction in body weight at 100 mg/kg/day, po for 7 days; type: organism-based; design: route oral; details: in vivo, 168 h
Rattus norvegicus [17] = assay: Toxicity in Sprague-Dawley rat assessed as reduction in food intake at 100 mg/kg/day, po for 7 days; type: organism-based; design: route oral; details: in vivo, 168 h
Rattus norvegicus [18] = assay: Toxicity in Sprague-Dawley rat assessed as adverse clinical signs at 100 mg/kg/day, po for 7 days; type: organism-based; design: route oral; details: in vivo, 168 h
Rattus norvegicus [19] = assay: Toxicity in Sprague-Dawley rat assessed as adverse histological findings at 100 mg/kg/day, po for 7 days; type: organism-based; design: route oral; details: in vivo, 168 h
[20] = Dissociation constant, pKa of the compound in aqueous solution; type: physicochemical
[21] = Lipophilicity, log D of the compound at pH 7.4; type: physicochemical; details: buffer
[22] = Solubility of the compound in water; type: physicochemical
[23] = Chemical stability of the compound up to 3 months at 50 degC; type: physicochemical
[24] = Chemical stability of the compound in aqueous solution at pH 2 to 6 up to 7 days in presence of light; type: physicochemical; details: buffer, pH 2, 168 h
[25] = AUC in cynomolgus monkey at 2 mg/kg, po; type: ADME, organism-based, Macaca fascicularis; design: dose 2 mg/kg, route oral; details: plasma
[26] = Clearance in cynomolgus monkey at 2 mg/kg; type: ADME, organism-based, Macaca fascicularis; design: dose 2 mg/kg; details: in vivo
[27] = Oral bioavailability in cynomolgus monkey at 2 mg/kg; type: ADME, organism-based, Macaca fascicularis; details: in vivo
[28] = Half life in rat; type: ADME, organism-based; details: in vivo
serum albumin [29] = biological target: serum albumin (Rattus norvegicus, UniProt P02770); assay: Binding affinity to rat serum albumin; type: ADME; details: read-out: PB (converted)
serum albumin (Rattus norvegicus, UniProt P02770), sequence (P02770 whole entry): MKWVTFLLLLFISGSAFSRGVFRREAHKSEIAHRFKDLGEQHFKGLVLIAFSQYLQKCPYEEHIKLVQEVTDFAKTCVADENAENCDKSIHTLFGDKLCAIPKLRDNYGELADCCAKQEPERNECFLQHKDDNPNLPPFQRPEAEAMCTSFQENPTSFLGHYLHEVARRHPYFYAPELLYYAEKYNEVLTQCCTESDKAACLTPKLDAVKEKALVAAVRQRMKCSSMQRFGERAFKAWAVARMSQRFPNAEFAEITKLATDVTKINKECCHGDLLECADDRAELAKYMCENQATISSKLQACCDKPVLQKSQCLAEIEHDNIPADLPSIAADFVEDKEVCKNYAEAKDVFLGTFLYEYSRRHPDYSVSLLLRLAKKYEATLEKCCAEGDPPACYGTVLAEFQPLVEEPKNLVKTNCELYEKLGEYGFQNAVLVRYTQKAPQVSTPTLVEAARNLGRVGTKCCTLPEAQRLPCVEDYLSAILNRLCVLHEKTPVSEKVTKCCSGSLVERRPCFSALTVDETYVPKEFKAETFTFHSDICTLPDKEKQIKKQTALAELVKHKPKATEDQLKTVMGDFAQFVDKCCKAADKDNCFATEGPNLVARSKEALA

SMILES: CC[C@H](C)[C@@H]1C(=O)N[C@H](C2Cc3ccccc3C2)C(=O)N1[C@@H](C(=O)N1CCOCC1)c1ccc(C)nc1C [EPELSIBAN]
- Ki (Oxytocin receptor): 0.126 nM
- AUC [1]: 3450 ng·h/mL
- clearance [2]: 13 mL/min/kg
- bioavailability [3]: 55%
- AUC [4]: 69 ng·h/mL
- clearance [5]: 19 mL/min/kg
- bioavailability [6]: 13%
- solubility [7]: 0.232 mg/mL (≈ 0.447 mM)
- logD [8]: 2.2
- fraction unbound (serum albumin [9]): 0.3
- CLH (Liver microsomes [10]): < 1 mL/min/g
- CLH (Liver): < 1 mL/min/g
- CLH [11]: 4 mL/min/g
- CLH (Liver microsomes [12]): 5 mL/min/g
- Ki (Vasopressin V1a receptor): > 6.31 µM
- Ki (Vasopressin V1b receptor): > 7.94 µM
- Ki (Vasopressin V2 receptor): 3.98 µM
- IC50 (Rattus norvegicus [13]): 0.192 µM
- IC50 (Cytochrome P450 1A2): > 100 µM
- IC50 (Cytochrome P450 2C9): > 100 µM
- IC50 (Cytochrome P450 2C19): > 100 µM
- IC50 (Cytochrome P450 2D6): > 100 µM
- IC50 (Cytochrome P450 3A4 [14]): > 100 µM
- IC50 (Cytochrome P450 3A4 [15]): > 100 µM
- Activity (Salmonella typhimurium): Non-toxic
- Activity (Rattus norvegicus [16]): Non-toxic
- Activity (Rattus norvegicus [17]): Non-toxic
- Activity (Rattus norvegicus [18]): Non-toxic
- Activity (Rattus norvegicus [19]): Non-toxic
- pKa [20]: 5.78
- logD [21]: 2.55
- solubility [22]: 33 mg/mL (≈ 63.6 mM)
- Stability [23]: Stable
- Stability [24]: Stable
- AUC [25]: 116 ng·h/mL
- clearance [26]: 26 mL/min/kg
- bioavailability [27]: 7%
- half-life [28]: 1.2 h

SMILES: CC(C)C[C@@H]1C(=O)N[C@H](C2Cc3ccccc3C2)C(=O)N1[C@@H](C(=O)N(C)C)c1ccc(F)cc1F
- Ki (Oxytocin receptor): 0.0794 nM
- AUC [1]: 2970 ng·h/mL
- clearance [2]: 15 mL/min/kg
- AUC [4]: 770 ng·h/mL
- clearance [5]: 7 mL/min/kg
- logD [8]: 3.4
- fraction unbound (serum albumin [9]): 0.06
- fraction unbound (serum albumin [29]): 0.01
- CLH (Liver microsomes [10]): 2 mL/min/g
- CLH (Liver): 7 mL/min/g
- CLH [11]: 22 mL/min/g
- CLH (Liver microsomes [12]): 14 mL/min/g
- Ki (Vasopressin V1a receptor): 0.631 µM
- Ki (Vasopressin V1b receptor): > 12.6 µM
- Ki (Vasopressin V2 receptor): 0.0398 µM
- IC50 (Cytochrome P450 1A2): > 100 µM
- IC50 (Cytochrome P450 2C9): 12 µM
- IC50 (Cytochrome P450 2C19): 38 µM
- IC50 (Cytochrome P450 2D6): 66 µM
- IC50 (Cytochrome P450 3A4 [14]): 5 µM
- IC50 (Cytochrome P450 3A4 [15]): 31 µM
- AUC [25]: 16 ng·h/mL
- clearance [26]: 24 mL/min/kg
- bioavailability [27]: 1.5%
